This note sets out measurements from US10363249B2, “Fatty acid synthase inhibitor for use in the treatment of drug resistant cancer” (3-V Biosciences, Inc., priority 2014, dated 2019).

Several values for one entry are separate records, joined by “and”; a condition that tells them apart may be missing. Equal entries are not always repeated.

In test [1] the test system is BxPC3 AbR (paclitaxel resistant) cells. Briefly: Nab-paclitaxel dose response with fixed FASN inhibitor, CellTiter-Glo viability, BxPC3 AbR. The following applies: for 3-Day IC50 Ratio + Compound 5 / 7-Day IC50 Ratio + Compound 5: BxPC3 AbR. (Cellular ATP, detected with luciferase, serves as a proxy for viable cell number.)
Description: (§1) For drug treatment, MIA PaCa-2 or BxPC-3 cells were plated in %-well plates in RPMI medium plus 10% FBS. Parental (paclitaxel sensitive) or AbR (paclitaxel resistant) variants of the MIA PaCa-2 or BxPC-3 cell lines were used. […] Serial dilutions of Nab-paclitaxel were prepared in DMSO and further diluted 1:10 in RPMI medium for addition to the assay solution. RPMI-diluted compounds were added to each well 24-hours after cell plating. Assays were done in triplicate for each drug concentration, with cell viability measured at 3 or 7 days after compound addition. The number of viable cells was measured using the CellTiter-Glo assay (Promega) according to the manufactures instructions. Luminosity per well was determined and the signal intensity was analyzed versus drug concentration. For each FASN inhibitor, the concentration of drug resulting in 50% inhibition of the maximum signal was determined, and this value was reported as the IC50.
Test [2] has as its system BxPC3 Parental (paclitaxel sensitive) cells. Briefly: Nab-paclitaxel dose response with fixed FASN inhibitor, CellTiter-Glo viability, BxPC3 Parental.
Description: as §1
Test [3] deals with MIA PaCa-2 AbR (paclitaxel resistant) cells. Briefly: Nab-paclitaxel dose response with fixed FASN inhibitor, CellTiter-Glo viability, MIA PaCa-2 AbR. The following applies: for 3-Day IC50 Ratio + Compound 5 / 7-Day IC50 Ratio + Compound 5: MIA PaCa-2 AbR.
Description: as §1
For test [4], the system named is MIA PaCa-2 Parental (paclitaxel sensitive) cells. Briefly: Nab-paclitaxel dose response with fixed FASN inhibitor, CellTiter-Glo viability, MIA PaCa-2 Parental.
Description: as §1

`Cc1cc(C)c(-c2[nH]c(C3COC3)nc2C)cc1C(=O)N1CC(c2ccc(C#N)cc2)C1` [Compound 5]: the “3-Day IC50 Ratio + Compound 5” value in test [1] (+ Compound 5 0.2 μM) came to 1.46; in test [1] (+ Compound 5 2.0 μM), 5.57; in test [2] (+ Compound 5 0.2 μM), 0.92; in test [2] (+ Compound 5 2.0 μM), 0.63; in test [3] (+ Compound 5 0.2 μM) it was 1.46; in test [3] (+ Compound 5 2.0 μM), 2.73. Moreover, the “3-Day IC50 Ratio + Compound 5” value turned out to be 1.18 in test [4] (+ Compound 5 0.2 μM) and 1.59 in test [4] (+ Compound 5 2.0 μM). The “7-Day IC50 Ratio + Compound 5” value is recorded as 1.29 in test [1] (+ Compound 5 0.2 μM); 3.98 in test [1] (+ Compound 5 2.0 μM); 0.61 in test [2] (+ Compound 5 0.2 μM); 0.63 in test [2] (+ Compound 5 2.0 μM); 1.04 in test [3] (+ Compound 5 0.2 μM); 3.37 in test [3] (+ Compound 5 2.0 μM). Besides, the “7-Day IC50 Ratio + Compound 5” value in test [4] (+ Compound 5 0.2 μM) came to 1.09; in test [4] (+ Compound 5 2.0 μM), 1.88. In addition, in test [1] (BxPC-3 paclitaxel resistant (AbR), Compound 5, 3 and 7 days (Table 2)), the “shift of the BxPC-3 Nab-paclitaxel IC50 value” was 4.0 fold and 5.6 fold. The “shift of the MIA PaCa-2 Nab-paclitaxel IC50 value” in test [3] (MIA PaCa-2 paclitaxel resistant (AbR), Compound 5, 3 and 7 days (Table 2)) was 2.7 fold and 3.4 fold.
